Consider one substance from patent US20130157285A1, “IDENTIFICATION OF INVASIVE AND SLOW-GROWING TUMORIGENIC CELL SUBSETS IN TUMORS” (The Regents of the University of California, priority 2011, published 2013).

One series has as its system MCF-10A. The series can be described thus: Fluorescent HA probe binding by flow cytometry (FACS). Format: cell-based, human. As to conditions: Table 1, HA probe binding/uptake. From the text:
(§1) Simultaneous profiling of cell surface markers and HA binding/uptake required the establishment of a sensitive multiplexed detection method, which could detect both the cell surface receptors and the binding/uptake of ligand (HA). We utilized fluorescence-activated cell sorting (FACS) and established protocols for minimum decoration of cells by antibodies and HA, maximum detection sensitivity at the cell surface, and retained viability/functionality during and after sort. Fluorescent HA probes and antibodies were synthesized and characterized in a panel of human breast cancer cell lines (MDA-MB-231, SUM1315MO2, HS-578T, MDA-MB-468, HCC-1569, BT-20, MCF-10A, S1, T4-2, MCF-7, BT474, SK-BR3, AU565, MDA-MB-361, D920, SK3 [RHAMM−/− and CD44−/− were used as negative controls], and 10T½ [RHAMM+/+ were used as positive controls]). In brief, soluble HA (280,000 dalton) was linked to hydrazide-activated fluorochromes and monoclonal antibodies were directly conjugated to tetrafluorophenyl (TFP) ester activated fluorochromes (Alexa Fluor 647 and sometimes to Alexa Fluor 488) and reacted with the live cells under sterile dark conditions. Four fluorochromes were selected in a manner that provided minimal fluorescent spectral overlaps and maximal brightness for low-expressing markers, which allowed sensitive monitoring of subtle changes in marker expression and HA binding capacity in live cells. Near infrared fluorescence range was selected for HA to extend signal stability during multiple stages of characterizations (Alexa Fluor 647). […] As well, these appeared to non-specifically interact with each other and with cells, which would require extensive characterization and optimization. Therefore, we continued our study using minimally-decorated HA and antibodies by fluorochromes, as described below, and successfully profiled multiple cell surface markers.
(§2) (1) Grow cells to 50% confluence on culture flask; (2) Rinse in Ca^2+-free Hank's Buffered Saline Solution (HBSS/20 mM HEPES, pH 7.3); (3) Harvest cells with non-enzymatic HBSS-based cell dissociation solution; (4) Resuspend in cold and sterile PBS solution that contains Antibiotic, HEPES pH 7.4, Insulin, and Transferrin (PBS/additive solution); (5) Centrifuge and eliminate supernatant; (6) Wash in cold PBS/additive solution; (7) Count cells using cell counter instrument and measure viability; (8) Treat cells (in suspension) with Alexa Flour 647-HA; (9) Incubate for 45 min on ice, in dark.
(§3) For single-color HA-binding flow cytometry: (a) wash the cells, eliminate supernatant and adjust concentration of solution appropriate for flow cytometry and (b) perform live cell flow cytometry immediately.
(§4) Cells were grown to 50%-70% confluence in 75 cm^2 culture flasks in DMEM supplemented with 10% FCS at 37° C. and 5% CO2, then subcultured every 3-4 days. For HA uptake experiments, cells were grown to 50% subconfluence, which was achieved 12-20 hrs after subculture, in order to maximize RHAMM surface display. Cells were rinsed in Ca++-free Hanks Buffered Saline (HBSS) solution/20 mM HEPES, pH 7.3, and removed from the substratum by incubating in non-enzymatic HBSS-based solution (Sigma-Aldrich[H-6648]) for 2-3 min, which preserves cell surface epitopes (Veiseh M, et al, Biomacromolecules 2012, Hamilton S. R. et al, JBC, 2007). Viablity of cells was assessed using a Vi_CELL cell analyzer.
(§5) 0.2 ml of soluble HA (1% HA, MWav=280,000 dalton) was activated in 1 ml of a (0.0028 g/1 ml MES) N-(3-Dimethylaminopropyl)-N′-ethylcarbodiimide hydrochloride (EDAC) solution (Sigma-Aldrich) in 4-morpholineethanesulfonic acid (MES) (20 mM, pH 4.5, Sigma-Aldrich), and the resulting solution was reacted with 0.3 ml of A^647-HA hydrazide, tris(triethylammonium) salt (Invitrogen, 1 mg/ml in H2O) in the dark at RT. The solution was covered in aluminum foil and placed on a rocker for 12 hrs at room temperature. […]
Background: A flow cytometer gives signals particle by particle.

In a further series the test system is MCF-7. The series is described as above. As to conditions: Table 1, HA probe binding/uptake. Format: cell-based, human.
Source text: as §1, §2, §3, §4, §5

The subject of series [1] is MDA-MB-231. Described as above. Format: cell-based, human.
Source text: as §1, §2, §3, §4, §5

For the next series, the system named is S1. The series is described as above. In kind it is cell-based, human. As to conditions: Table 1; SI (S1); HA probe binding/uptake.
Source text: as §1, §2, §3, §4, §5

A further series deals with SKBR-3. The description is as above. In kind it is cell-based, human.
Source text: as §1, §2, §3, §4, §5

The next series has as its system T4-2. The description is as above. Format: cell-based, human.
Source text: as §1, §2, §3, §4, §5

Series [2] has as its system MDA-MB-231. Briefly: Inhibition of HA probe uptake, confocal imaging. Format: cell-based, human. Conditions: excess HA added either during or prior to addition of HA probe.
The next series has as its system MDA-MB-231 tumor cells. The series can be described thus: Extravasation efficiency in chick chorioallantoic membrane (CAM). In kind it is in vivo, chicken embryos. As to conditions: 24 hrs after injection into CAM vein; cells pre-treated with HA for 1 hour on ice. How it is done: Fertilized chicken eggs were incubated in a rotary incubator at 37° C. with 90% humidity for 4 days before being removed from the shell and placed in covered dishes and incubated at 37° C. with 90% humidity until usage (PMID:20671724). On day 13 of embryonic development, 7.5×10^4 tumor cells in 100 μL PBS were intravenously injected into a vein within the chorioallantoic membrane (CAM, N=5 each group) (PMID-20671724). Prior to injection, cancer cells were pre-treated with HA (100 mg/ml) or vehicle (PBS) for 1 hour on ice. […] At least 200 cells for each ROI at T=0 was analyzed and enumerated.
Extravasated tumor cells can be observed in interstitial spaces 24-72 hrs after their injection into CAM veins but by this time cell bound F-HA is not detectable since it has been metabolized (FIG. 22B). To determine if F-HA promotes extravasation of dt-Tomato expressing tumor cells, we therefore simply measured the number of extravasated tumor cells at varying times after injection with or without unlabeled HA, used at the same concentration and polydispersity as F-HA, with intravial confocal imaging (FIG. 22C-D). […] We next determined if exposing tumor cells to HA increased extravasation, choosing 24 hrs after injection rather than 72 hrs shown in FIG. 22C to reduce the contribution of proliferation to appearance of extravascular tumor colonies. […]

Series [3] in a line: Targeting of HA-based probes in response-to-injury model. In kind it is in vivo, rat. Conditions: radiolabel, magnetic resonance and fluorescence labels. The source says:
(§6) We evaluated the targeting ability of HA-based probes in several modalities (radiolabel, magnetic resonance, and fluorescence) to areas of microenvironment remodeling that are associated with both tissue injury and tumor formation. We chose well-characterized rat balloon injured carotid arteries as a response to injury model, and xenografts of MDA-MB-231 cells as a tumor model.

The test system of series [4] is xenografts of MDA-MB-231 cells. The series can be described thus: Targeting of HA-based probes in tumor model. Format: in vivo. Conditions: radiolabel, magnetic resonance and fluorescence labels.
Source text: as §6

The conditions of series [5]: data obtained from Hyal Corporation, cited from earlier work.
[6] abbreviates: Table 1, HA probe binding/uptake.

For the substance hyaluronan [HA], the HA binding result in the series on MCF-10A is “Medium”; in the series on MCF-7, “Low”; in the series on MDA-MB-231 [1] (setting [6]) it was “Very high”; in the series on S1 it was “Medium”; in the series with SKBR-3 (setting [6]) it was “Low”; with T4-2 (setting [6]), “High”. Also, the HA binding level entry in the series on MDA-MB-231 [1] (Table 6) is “HA^4+”; with SKBR-3 (Table 6) it was “HA^+”; with T4-2 (Table 6), “HA^2+”. Also, the “effect on signal of HA probe uptake” value in the series on MDA-MB-231 [2] is reported as “reduced”. In the series on MDA-MB-231 tumor cells, the “extravasation efficiency of tumor cells exposed to HA vs untreated cells” value is “twice”. Moreover, the “targeting of HA-based probes to injured tissue” value in [3] is given as “selective targeting”. Moreover, the “targeting of HA-based probes to tumor tissue” value in [4] is on record as “selective targeting”. In series [5] (I.V. 1-12 mg/kg), the “tolerability of HA injected I.V.” value is listed as “well tolerated”. Also, in series [5] (I.V., 1.5 mg/kg dose), the “T½ from HA serum levels” value is 12 h.
